These results are taken from US20050143411A1, “Method for treating pulmonary disease” (Fujisawa Pharmaceutical Co., Ltd., priority 2003, published 2005).

The test relates to cigarette smoke exposed guinea pigs. Briefly: cigarette smoke-induced COPD model in guinea pigs; specific airway resistance (sRaw) by double body plethysmograph. In kind it is in vivo, Hartley guinea pigs. On the procedure: The effect of the FK506 Substance on the cigarette smoke-induced COPD model in guinea pigs was confirmed in the following manner.
1. Hartley guinea pigs were exposed to cigarette smoke in a nose-only inhalation chamber for 60 min/day, 5 days/week, for 4 weeks. Animals of the negative control group were exposed to the air.
2. FK506 Substance in the form of a solid dispersion composition, which was prepared in a similar manner to that of Example 1 (above), or its placebo was given orally, after suspension in water, every day about 1 hr before the cigarette smoke exposure.
3. Specific airway resistance (sRaw) was measured as a respiratory function parameter at 0, 1, 2, 3 and 4 weeks after the start of cigarette smoke inhalation by a double body plethysmograph method (Ref. 1).
Reference • Ref. 1; Pennock B E, Cox C P, Rogers R M, Cain W A, Wells J H. A Noninvasive technique for measurement of changes in specific airway resistance. J Appl Physiol. 1979 February; 46(2):399-406. Results

With `C=CCC1C=C(C)CC(C)CC(OC)C2OC(O)(C(=O)C(=O)N3CCCCC3C(=O)OC(C(C)=CC3CCC(O)C(OC)C3)C(C)C(O)CC1=O)C(C)CC2OC` (centres unmarked) [FK506, 17-allyl-1,14-dihydroxy-12-[2-(4-hydroxy-3-methoxycyclohexyl)-1-methylvinyl]-23,25-dimethoxy-13,19,21,27-tetramethyl-11,28-dioxa-4-azatricyclo[22.3.1.0^4,9]octacos-18-ene-2,3,10,16-tetraone], the sRaw (FK506 0.32 mg/kg orally every day, 1 week of cigarette smoke exposure) is recorded as 1.815 ± 0.073 cmH2O × mL/(mL/sec); the sRaw (FK506 0.32 mg/kg orally every day, 2 weeks of cigarette smoke exposure) was 2.089 ± 0.054 cmH2O × mL/(mL/sec); the sRaw (FK506 0.32 mg/kg orally every day, 3 weeks of cigarette smoke exposure) is reported as 2.476 ± 0.112 cmH2O × mL/(mL/sec); the sRaw (FK506 0.32 mg/kg orally every day, 4 weeks of cigarette smoke exposure) was 2.636 ± 0.133 cmH2O × mL/(mL/sec); the sRaw (FK506 0.32 mg/kg orally every day, pre (0 weeks), n=8) is 1.892 ± 0.048 cmH2O × mL/(mL/sec); the sRaw (FK506 1 mg/kg orally every day, 1 week of cigarette smoke exposure) is reported as 1.844 ± 0.123 cmH2O × mL/(mL/sec). For the same molecule, the sRaw by setting is: (FK506 1 mg/kg orally every day, 2 weeks of cigarette smoke exposure) 2.012 ± 0.103 cmH2O × mL/(mL/sec); (FK506 1 mg/kg orally every day, 3 weeks of cigarette smoke exposure) 2.372 ± 0.167 cmH2O × mL/(mL/sec); (FK506 1 mg/kg orally every day, 4 weeks of cigarette smoke exposure) 2.763 ± 0.276 cmH2O × mL/(mL/sec); (FK506 1 mg/kg orally every day, pre (0 weeks), n=8) 1.899 ± 0.064 cmH2O × mL/(mL/sec). Also, the “effect on decline of the respiratory function (increase of sRaw) caused by cigarette smoke” value (orally given, cigarette smoke exposed guinea pigs) is reported as “significantly suppressed the decline of the respiratory function”.
